Results: ChEMBL document CHEMBL1201862, “PubChem BioAssay data set” (2004)
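Growth conditions: 96-well plates. Treatment: test compound, 48 hours, 5 concentrations. Analysis: linear interpolation between bracketing concentrations; unreached endpoints set to highest concentration. Here, GI50 denotes the concentration required for 50% inhibition of growth.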 Calls of active or inactive are those of the source. No stated cut-off is given here; in the data, active = GI50 up to about 1.1 µM and inactive = higher.

How the values were obtained:
Assay in all cases: growth of human tumour cells (NCI), 48 h
BT-549 = test system: BT-549
CAKI-1 = test system: CAKI-1
COLO 205 = test system: COLO 205
EKVX = test system: EKVX
HCC 2998 = test system: HCC 2998
HCT-15 = test system: HCT-15
IGROV-1 = test system: IGROV-1
K562 = test system: K562
LOX IMVI = test system: LOX IMVI
M14 = test system: M14
MDA-MB-435 = test system: MDA-MB-435
NCI-H226 = test system: NCI-H226
NCI/ADR-RES = test system: NCI/ADR-RES
SR = test system: SR
TK-10 = test system: TK-10
UO-31 = test system: UO-31
SF-295 = test system: SF-295
SNB-75 = test system: SNB-75
T47D = test system: T47D

SMILES	GI50 (BT-549)	GI50 (CAKI-1)	GI50 (COLO 205)	GI50 (EKVX)	GI50 (HCC 2998)	GI50 (HCT-15)	GI50 (IGROV-1)	GI50 (K562)	GI50 (LOX IMVI)	GI50 (M14)	GI50 (MDA-MB-435)	GI50 (NCI-H226)	GI50 (NCI/ADR-RES)	GI50 (SR)	GI50 (TK-10)	GI50 (UO-31)	GI50 (SF-295)	GI50 (SNB-75)	GI50 (T47D)
CC1CCCC(CC(=O)O)(CC(=O)O)C1 (centres undefined)	> 100 µM (inactive)	> 100 µM (inactive)	> 100 µM (inactive)	> 100 µM (inactive)	> 100 µM (inactive)	> 100 µM	> 100 µM (inactive)	> 100 µM (inactive)	> 100 µM (inactive)	> 100 µM (inactive)	> 100 µM (inactive)	> 100 µM (inactive)	> 100 µM (inactive)	> 100 µM (inactive)	> 100 µM (inactive)	> 100 µM (inactive)			
CN1CC[C@]2(c3cccc(O)c3)CC(=O)/C(=C/c3ccccc3)[C@@H]1C2.[O-][Cl+3]([O-])([O-])O	2.44 µM (inactive)	2.29 µM (inactive)	6.97 µM (inactive)	6.92 µM (inactive)	2.59 µM (inactive)	1.66 µM	4.39 µM (inactive)	1.64 µM (inactive)	1.94 µM (inactive)	2.73 µM (inactive)	1.72 µM (inactive)	15 µM (inactive)	2.98 µM (inactive)	2.41 µM (inactive)	13.9 µM (inactive)	2.51 µM (inactive)	3.24 µM (inactive)	2 µM (inactive)	
CC1(C)CC(=O)C(=[N+]=[N-])C(=O)C1		> 100 µM (inactive)	> 100 µM (inactive)	> 100 µM (inactive)	> 100 µM (inactive)	> 100 µM	> 100 µM (inactive)	> 100 µM (inactive)	> 100 µM (inactive)	> 100 µM (inactive)		> 100 µM (inactive)			> 100 µM (inactive)		> 100 µM (inactive)	> 100 µM (inactive)	
O=S1(=O)c2ccccc2N2CCCc3cc(Cl)cc1c32	> 100 µM (inactive)	61.2 µM (inactive)	> 100 µM (inactive)	> 100 µM (inactive)	> 100 µM (inactive)	> 100 µM	> 100 µM (inactive)	> 100 µM (inactive)	> 100 µM (inactive)	> 100 µM (inactive)	> 100 µM (inactive)	> 100 µM (inactive)	> 100 µM (inactive)	> 100 µM (inactive)	> 10 µM (inactive)	> 100 µM (inactive)	29.3 µM (inactive)	12.6 µM (inactive)	
COc1ccc(Nc2nc3ccccc3nc2-c2cccs2)cc1OC		> 10 µM (inactive)	> 10 µM (inactive)	> 10 µM (inactive)	> 10 µM (inactive)	> 10 µM	> 10 µM (inactive)	> 10 µM (inactive)	> 10 µM (inactive)	> 10 µM (inactive)	> 10 µM (inactive)	> 10 µM (inactive)	> 10 µM (inactive)	5.89 µM (inactive)	> 10 µM (inactive)	> 10 µM (inactive)	> 10 µM (inactive)	> 10 µM (inactive)	> 10 µM (inactive)
COC(=O)c1cc(NC(=O)c2cc(NC(=O)c3cc([N+](=O)[O-])cn3C)cn2C)cn1C	> 100 µM (inactive)	69.2 µM (inactive)	44.4 µM (inactive)	34.1 µM (inactive)		82 µM	0.0147 µM (active)	61.9 µM (inactive)	56.2 µM (inactive)	> 100 µM (inactive)	98.6 µM (inactive)	> 100 µM (inactive)	61.4 µM (inactive)		20.3 µM (inactive)	68.4 µM (inactive)	89.5 µM (inactive)	> 100 µM (inactive)	12 µM (inactive)
CCOC(=O)C12OC(OCC)(CC1(OCC)OCC)C1(CC1)C2=O (centres undefined)	> 100 µM (inactive)	> 100 µM (inactive)	> 100 µM (inactive)	> 100 µM (inactive)	> 100 µM (inactive)	> 100 µM	> 100 µM (inactive)	> 100 µM (inactive)	> 100 µM (inactive)	> 100 µM (inactive)	> 100 µM (inactive)	> 100 µM (inactive)	> 100 µM (inactive)		> 100 µM (inactive)	> 100 µM (inactive)	> 100 µM (inactive)	> 100 µM (inactive)	
C[C@]12CCC(O)CC1=CC[C@@H]1[C@@H]2CC[C@]2(C)C(=O)[C@H](n3ccnc3)C[C@@H]12 (some centres undefined)		> 100 µM (inactive)	28.7 µM (inactive)	> 100 µM (inactive)		> 100 µM	> 100 µM (inactive)	38 µM (inactive)	44.5 µM (inactive)	77.6 µM (inactive)	43.1 µM (inactive)	> 100 µM (inactive)	39.8 µM (inactive)	32.4 µM (inactive)	> 100 µM (inactive)	75.9 µM (inactive)	94.8 µM (inactive)	> 100 µM (inactive)	
Nc1ncnc2c1cnn2Cc1cn(COCC(O)CO)nn1 (centres undefined)	> 100 µM (inactive)	> 100 µM (inactive)	> 100 µM (inactive)	> 100 µM (inactive)	> 100 µM (inactive)	> 100 µM	> 100 µM (inactive)		> 100 µM (inactive)	> 100 µM (inactive)	> 100 µM (inactive)		> 100 µM (inactive)		> 100 µM (inactive)	> 100 µM (inactive)	> 100 µM (inactive)		> 100 µM (inactive)
CCOC(=O)c1cc(-c2cc(OC)c(OC)c([N+](=O)[O-])c2)c([N+](=O)[O-])n1C	> 10 µM (inactive)			> 10 µM (inactive)	3.26 µM (inactive)	4.58 µM	5.9 µM (inactive)	2.83 µM (inactive)		8.57 µM (inactive)	2.04 µM (inactive)	> 10 µM (inactive)	3.94 µM (inactive)	4.81 µM (inactive)	> 10 µM (inactive)	> 10 µM (inactive)	3.42 µM (inactive)	> 10 µM (inactive)	
c1ccc(-n2nc3ccc4nonc4c3n2)cc1		> 100 µM (inactive)	> 100 µM (inactive)	44.6 µM (inactive)	> 100 µM (inactive)	> 100 µM	> 100 µM (inactive)	> 100 µM (inactive)	> 100 µM (inactive)	> 100 µM (inactive)	> 100 µM (inactive)		> 100 µM (inactive)	> 100 µM (inactive)	> 100 µM (inactive)		> 100 µM (inactive)	49.1 µM (inactive)	> 100 µM (inactive)
CC(=O)NCc1nc(C#N)c(N)o1		> 100 µM (inactive)	> 100 µM (inactive)	> 100 µM (inactive)	> 100 µM (inactive)	> 100 µM	8.95 µM (inactive)	> 100 µM (inactive)	> 100 µM (inactive)	> 100 µM (inactive)	> 100 µM (inactive)	> 100 µM (inactive)	> 100 µM (inactive)		> 100 µM (inactive)	> 100 µM (inactive)	> 100 µM (inactive)	> 100 µM (inactive)	> 100 µM (inactive)
CN1CCN(c2nc3ccccc3nc2C(=O)c2ccc(Cl)cc2)CC1		40.4 µM (inactive)	35.8 µM (inactive)	86.3 µM (inactive)	33.7 µM (inactive)	55.6 µM	83.6 µM (inactive)	40.8 µM (inactive)	40.6 µM (inactive)	22.2 µM (inactive)	44.5 µM (inactive)		54.5 µM (inactive)	47.4 µM (inactive)	35.6 µM (inactive)	31 µM (inactive)	36.3 µM (inactive)	> 100 µM (inactive)	45.6 µM (inactive)
COC(=O)C(Cc1nc2ccccc2nc1O)C(NO)C(=O)Nc1c(Cl)cc([N+](=O)[O-])cc1Cl (centres undefined)		27.6 µM (inactive)	46.2 µM (inactive)	27.7 µM (inactive)	59.6 µM (inactive)	49.2 µM	40.8 µM (inactive)	40.8 µM (inactive)		50.1 µM (inactive)				31.3 µM (inactive)		36.1 µM (inactive)	27.7 µM (inactive)		
Cc1cc(-c2c(Br)cc(C(=O)O)n2C)on1	> 100 µM (inactive)	> 100 µM (inactive)	> 100 µM (inactive)	> 100 µM (inactive)		> 100 µM		> 100 µM (inactive)	> 100 µM (inactive)	> 100 µM (inactive)	> 100 µM (inactive)	> 100 µM (inactive)	> 100 µM (inactive)		> 100 µM (inactive)	> 100 µM (inactive)	> 100 µM (inactive)	> 100 µM (inactive)	> 100 µM (inactive)
CN1C(=O)C(O)CC1c1cccc(F)c1 (centres undefined)	> 100 µM (inactive)	> 100 µM (inactive)	> 100 µM (inactive)	> 100 µM (inactive)	> 100 µM (inactive)	> 100 µM	> 100 µM (inactive)	> 100 µM (inactive)	> 100 µM (inactive)	> 100 µM (inactive)	> 100 µM (inactive)	> 100 µM (inactive)	> 100 µM (inactive)	> 100 µM (inactive)		> 100 µM (inactive)	> 100 µM (inactive)	55.7 µM (inactive)	
COc1ccc(/N=N/c2ccc3oc(=O)c(C(=O)Nc4ccccc4C)cc3c2)cc1		> 10 µM (inactive)	> 10 µM (inactive)	> 10 µM (inactive)	> 10 µM (inactive)	> 10 µM	> 10 µM (inactive)		> 10 µM (inactive)	> 10 µM (inactive)	> 10 µM (inactive)	> 10 µM (inactive)	> 10 µM (inactive)	> 10 µM (inactive)	> 10 µM (inactive)	> 10 µM (inactive)	> 10 µM (inactive)	4.69 µM (inactive)	> 10 µM (inactive)
